Measured values taken from US20040157740A1, “Heterocyclyl phenyl benzyl ethers used as fungicides” (priority 2001, published 2004).

Experiment: logP determination by HPLC (EEC Directive 79/831 Annexe V. A8, gradient method)
Type: physicochemical
Settings: pH 2; read-out: log P (pH 2)

| Compound | chromatographic logP |
| --- | --- |
| CCc1nc(-c2ccc(OCc3ccccc3/C(=N\OC)C(=O)NC)c(C)c2)no1 [Example 4, N-methyl-2-[4-(5-ethyl-1,2,4-oxadiazol-3-yl)-2-methylphenoxy]methylphenylglyoxylamide O-methyl oxime] | 3.24 |
| CCc1nc(-c2ccc(OCc3ccccc3/C(=N\OC)C(=O)OC)c(C)c2)no1 [Example 3, methyl 2-[4-(5-ethyl-1,2,4-oxadiazol-3-yl)-2-methylphenoxy]methylphenylglyoxylate O-methyl oxime] | 3.8 |
| COc1ccc(/C(N)=N/O)cc1C [Example VII-I, 3-methyl-4-methoxybenzamideoxime] | 0.36 |
| CNC(=O)/C(=N/OC)c1ccccc1COc1ccc(-c2nc(C(F)(F)F)ns2)cc1C [Example 6, N-methyl-2-[4-(3-trifluoromethyl-1,2,4-thiadiazol-5-yl)-2-methylphenoxy]methylphenylglyoxylamide O-methyl oxime] | 4.08 |
| CO/N=C(/C(=O)OC)c1ccccc1COc1ccc(-c2nnn(C)n2)cc1C [Example 1, methyl 2-[4-(2-methyltetrazol-5-yl)-2-methylphenoxy]methylphenylglyoxylate O-methyl oxime] | 3.08 |
| Cc1cc(-c2nnnn2C)ccc1O [1-methyl-5-(3-methyl-4-hydroxyphenyl)tetrazole] | 1.04 |
| CNC(=O)/C(=N/OC)c1ccccc1COc1ccc(-c2nnn(C)n2)cc1C [Example 2, N-methyl-2-[4-(2-methyltetrazol-5-yl)-2-methylphenoxy]methylphenylglyoxylamide O-methyl oxime] | 2.58 |
| CO/N=C(/C(=O)OC)c1ccccc1COc1ccc(-c2nc(C(F)(F)F)ns2)cc1C [Example 5, methyl 2-[4-(3-trifluoromethyl-1,2,4-thiadiazol-5-yl)-2-methylphenoxy]methylphenylglyoxylate O-methyl oxime] | 4.62 |

More lines, now with the values ahead:

| chromatographic logP | Compound |
| --- | --- |
| 2.08 | CCc1nc(-c2ccc(O)c(C)c2)no1 [Example III-2, 5-ethyl-3-(3-methyl-4-hydroxyphenyl)-1,2,4-oxadiazole] |
| 2.38 | COc1ccc(-c2nnn(C)n2)cc1C [Example V-2, 2-methyl-5-(3-methyl-4-methoxyphenyl)tetrazole] |
| 1.45 | Cc1cc(-c2nnn(C)n2)ccc1O [Example III-1, 2-methyl-5-(3-methyl-4-hydroxyphenyl)tetrazole] |
| 3.24 | COc1ccc(-c2nnn(C(F)F)n2)cc1C [Example V-6] |
| 2.54 | Cc1cc(-c2nnn(C(C)(C)C)n2)ccc1O [Example III-4] |
| 3.19 | CCc1nc(-c2ccc(OC)c(C)c2)no1 [Example V-8] |
| 2.18 | Cc1cc(-c2nnn(C(F)F)n2)ccc1O [Example III-7] |
| 2.75 | C#CCn1nnc(-c2ccc(OC)c(C)c2)n1 [Example V-44] |
| 1.51 | COc1ccc(-c2nn[nH]n2)cc1C [Example V-1, 5-(3-methyl-4-methoxyphenyl)tetrazole] |
| 3.78 | COc1ccc(-c2nnn(C(C)(C)C)n2)cc1C [Example V-3] |
| 2.51 | COc1ccc(-c2nnnn2C(F)F)cc1C [Example V-7] |
| 2.12 | C#CCn1nnnc1-c1ccc(OC)c(C)c1 [Example V-5] |
| 1.81 | C#CCn1nnc(-c2ccc(O)c(C)c2)n1 [Example III-5] |
| 5.78 | Cc1cc(-c2nc(C(F)(F)F)ns2)ccc1OCc1ccc(Cl)cc1 [Example V-9, 3-trifluoromethyl-5-[3-methyl-4-(4-chlorobenzyloxy)phenyl]-1,2,4-thiadiazole] |
| 1.41 | C#CCn1nnnc1-c1ccc(O)c(C)c1 [Example III-6] |
| 3.1 | Cc1cc(-c2nc(C(F)(F)F)ns2)ccc1O [Example III-3, 3-trifluoromethyl-5-(3-methyl-4-hydroxyphenyl)-1,2,4-thiadiazole] |
| 1.75 | Cc1cc(-c2nnnn2C(F)F)ccc1O [Example III-8] |
